Reference: patent US9221838B2, “Inhibitors of AKT activity” (ALMAC DISCOVERY LIMITED, priority 2009, dated 2015)

Columns and labels:
AKT3 = target: T1, AKT3 (Homo sapiens, UniProt Q9Y243); assay: AKT Kinase Assay (IMAP fluorescent polarisation) vs AKT3; format: biochemical
T1 construct: purchased SignalChem
How it was run: (§1)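 Phosphorylation of FAM-Crosstide detected by IMAP binding and fluorescence polarisation (485/528 nm), with IC50 fitted from % inhibition versus vehicle. Compound was incubated 45 min with enzyme, then reacted 1 h at room temperature with ATP and peptide in Tris/MgCl2/DTT buffer. Dose response had fourteen half-log points.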

[1] = test system: PC3 and/or LnCaP cell lines; assay: in vitro cell proliferation assay (Cell Titre Glo); format: cell-based; settings: Homo sapiens, read-out: inhibition of proliferation, IC50
Procedure: Testing of the compounds was also performed using in vitro cell proliferation assays:
Cell Titre Glo (Promega) is a highly sensitive homogeneous reagent used to determine the viability of cells. The reagent uses a stable form of luciferase to measure ATP as an output of viability. The luminescent values generated in the assay are directly proportional to the number of viable cells in your assay.
The following materials were used: White, clear bottomed 96 well assay plates (Costar); Cell titre Glo reagents; LnCaP (ECACC) cells grown in RPMI medium (Invitrogen) supplemented with 10 mM HEPES (Invitrogen), 1 mM Sodium pyruvate (Invitrogen), 2 mM L-Glutamine (Invitrogen) and 10% Foetal calf serum (Invitrogen); PC3 (ECACC) cells grown in RPMI medium supplemented with 10% Foetal calf serum (Invitrogen); Trypsin (Invitrogen); PBS (Invitrogen); Biotek Synergy 4 Hybrid Plate reader; 96 well plate shaker (Stuart SSL5); Eppendorf 5414 desk-top centrifuge; Beckman Coulter cell counter Z1 single threshold system.
Prostate cell lines, PC3 and LnCaP, were washed, detached and re-suspended in their respective fresh media. The cells were pelleted by centrifugation (Eppendorf 5414) and spent supernatant discarded. The cells were re-suspended by vortex mixing, counted and seeded into clear bottom white 96 well plates at a density of 5000 cells per well. The cells were incubated (Sanyo) overnight at 37° C. ([…]), and next day treated with increasing concentrations of test compound formulated in fresh medium. The plates were returned to the incubator for 72 hours. […]
The cell viability post compound treatment was determined by the luminescent intensity emitted from the drug treated wells in the plate. In brief, the assay plate was placed in the Biotex Synergy 4 Hybrid plate reader and the luminescence read in each well. The compound treated wells were compared to vehicle treated wells and the % inhibition of cell viability calculated.
The data was analysed using GraphPad Prism, with IC50 values generated using non-linear regression of the data set.

AKT1 = target: T2, AKT1 (Homo sapiens, UniProt P31749); assay: AKT Kinase Assay (IMAP fluorescent polarisation) vs AKT1; format: biochemical
T2 construct: purchased SignalChem
T2 sequence (P31749 whole entry): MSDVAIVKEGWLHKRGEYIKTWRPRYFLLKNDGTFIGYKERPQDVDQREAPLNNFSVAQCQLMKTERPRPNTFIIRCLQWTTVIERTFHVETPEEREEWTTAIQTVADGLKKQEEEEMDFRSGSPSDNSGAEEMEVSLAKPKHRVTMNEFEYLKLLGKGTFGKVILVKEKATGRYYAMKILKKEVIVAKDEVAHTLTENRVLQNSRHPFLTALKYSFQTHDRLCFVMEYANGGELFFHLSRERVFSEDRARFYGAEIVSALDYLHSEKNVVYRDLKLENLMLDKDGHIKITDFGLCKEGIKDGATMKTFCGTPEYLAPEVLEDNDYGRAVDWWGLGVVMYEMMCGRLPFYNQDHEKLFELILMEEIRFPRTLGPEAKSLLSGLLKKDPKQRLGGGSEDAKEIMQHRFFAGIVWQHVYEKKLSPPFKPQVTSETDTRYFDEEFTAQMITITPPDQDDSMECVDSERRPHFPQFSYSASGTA
How it was run: as §1

AKT2 = target: T3, AKT2 (Homo sapiens, UniProt P31751); assay: AKT Kinase Assay (IMAP fluorescent polarisation) vs AKT2; format: biochemical
T3 construct: purchased SignalChem
T3 sequence (P31751 whole entry): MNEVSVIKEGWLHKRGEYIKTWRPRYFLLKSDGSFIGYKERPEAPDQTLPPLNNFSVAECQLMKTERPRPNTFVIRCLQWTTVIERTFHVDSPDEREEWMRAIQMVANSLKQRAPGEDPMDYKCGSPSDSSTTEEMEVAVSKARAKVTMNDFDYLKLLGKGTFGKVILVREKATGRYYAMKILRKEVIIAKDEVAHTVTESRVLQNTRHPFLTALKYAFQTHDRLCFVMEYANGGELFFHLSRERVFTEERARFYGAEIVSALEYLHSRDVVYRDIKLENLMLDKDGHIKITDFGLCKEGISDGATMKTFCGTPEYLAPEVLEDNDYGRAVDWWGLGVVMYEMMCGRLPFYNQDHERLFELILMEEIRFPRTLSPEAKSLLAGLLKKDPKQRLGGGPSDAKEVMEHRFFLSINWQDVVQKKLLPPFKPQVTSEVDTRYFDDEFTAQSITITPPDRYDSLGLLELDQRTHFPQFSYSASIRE
How it was run: as §1

GSK3β phosphorylation = assay: phosphorylation status of members of the AKT/PI3K pathway via ELISA; format: cell-based; settings: measured at 48 h, read-out: inhibition of GSK3β phosphorylation, IC50

T1 sequence (Q9Y243 whole entry): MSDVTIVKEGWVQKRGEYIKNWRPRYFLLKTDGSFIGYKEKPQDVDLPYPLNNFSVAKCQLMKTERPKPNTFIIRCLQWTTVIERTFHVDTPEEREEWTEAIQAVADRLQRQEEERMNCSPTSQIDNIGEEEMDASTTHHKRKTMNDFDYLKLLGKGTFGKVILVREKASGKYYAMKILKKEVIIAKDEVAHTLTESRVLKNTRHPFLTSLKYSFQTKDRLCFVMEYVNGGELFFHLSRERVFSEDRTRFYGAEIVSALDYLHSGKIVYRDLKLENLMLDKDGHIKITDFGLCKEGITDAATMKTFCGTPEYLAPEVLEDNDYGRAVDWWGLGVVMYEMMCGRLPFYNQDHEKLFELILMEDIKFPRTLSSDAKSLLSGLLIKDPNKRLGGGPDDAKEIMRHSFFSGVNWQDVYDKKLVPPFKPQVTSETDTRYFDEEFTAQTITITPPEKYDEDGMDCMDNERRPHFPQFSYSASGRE

SMILES | IC50 (AKT3) | IC50 [1] | IC50 (AKT1) | IC50 (AKT2) | IC50 (GSK3β phosphorylation)
NC1(c2ccc(-c3nc4c(cc3-c3ccccc3)-c3n[nH]cc3CC4)cc2)CCC1 [Example 4, 1-(4-(8-phenyl-4,5-dihydro-2H-pyrazolo[3,4-f]quinolin-7-yl)phenyl)cyclobutanamine] | > 10000 nM | < 10000 nM | ≤ 100 nM | 100 to 1000 nM | < 100 nM
NC1(c2ccc(-c3nc4c(cc3-c3ccccc3)-c3nncn3CC4)cc2)CCC1 [Example 28, 1-(4-(9-phenyl-5,6-dihydro-[1,2,4]triazolo[3,4-f][1,6]naphthyridin-8-yl)phenyl)cyclobutanamine] | > 10000 nM | < 10000 nM | 1000 to 10000 nM | 100 to 1000 nM | –
CN(C)CCN1C(=O)COc2nc(-c3ccc(C4(N)CCC4)cc3)c(-c3ccccc3)cc21 [Example 34, 6-(4-(1-aminocyclobutyl)phenyl)-1-(2-(dimethylamino)ethyl)-7-phenyl-1H-pyrido[2,3-b][1,4]oxazin-2(3H)-one] | > 10000 nM | – | 1000 to 10000 nM | 1000 to 10000 nM | –
CN1Cc2nc(-c3ccc(C4(N)CCC4)cc3)c(-c3ccccc3)cc2N(C)C1=O [Example 89, 6-(4-(1-aminocyclobutyl)phenyl)-1,3-dimethyl-7-phenyl-3,4-dihydropyrido[3,2-d]pyrimidin-2(1H)-one] | 1000 to 10000 nM | – | 100 to 1000 nM | 100 to 1000 nM | –
N#CCN1C(=O)C(CCO)Oc2nc(-c3ccc(C4(N)CCC4)cc3)c(-c3ccccc3)cc21 (stereo not shown) [Example 78] | > 10000 nM | – | 100 to 1000 nM | 100 to 1000 nM | –
CN1C(=O)COc2nc(-c3ccc(C4(N)CCC4)cc3)c(-c3ccc(F)cc3)cc21 [Example 132, 6-(4-(1-aminocyclobutyl)phenyl)-7-(4-fluorophenyl)-1-methyl-1H-pyrido[2,3-b][1,4]oxazin-2(3H)-one] | > 10000 nM | – | 100 to 1000 nM | 1000 to 10000 nM | –
Cn1ncc2c1-c1cc(-c3ccccc3)c(-c3ccc(C4(N)CCC4)cc3)nc1CC2 [Example 6, 1-(4-(1-methyl-8-phenyl-4,5-dihydro-1H-pyrazolo[3,4-f]quinolin-7-yl)phenyl)cyclobutanamine] | 1000 to 10000 nM | – | 100 to 1000 nM | 1000 to 10000 nM | –

The next lines start with the values.

IC50 (AKT3) | IC50 [1] | IC50 (AKT1) | IC50 (AKT2) | IC50 (GSK3β phosphorylation) | SMILES
1000 to 10000 nM | < 10000 nM | ≤ 100 nM | 100 to 1000 nM | – | CN1C(=O)COc2nc(-c3ccc(C4(N)CCC4)cc3)c(-c3ccccc3)cc21 [Example 31, 6-(4-(1-aminocyclobutyl)phenyl)-1-methyl-7-phenyl-1H-pyrido[2,3-b][1,4]oxazin-2(3H)-one]
1000 to 10000 nM | – | 1000 to 10000 nM | 100 to 1000 nM | – | NC1(c2ccc(-c3nc4c(cc3-c3ccccc3)N(Cc3cscn3)C(=O)CO4)cc2)CCC1 [Example 59, 6-(4-(1-aminocyclobutyl)phenyl)-7-phenyl-1-(thiazol-4-ylmethyl)-1H-pyrido[2,3-b][1,4]oxazin-2(3H)-one]
1000 to 10000 nM | – | 1000 to 10000 nM | 100 to 1000 nM | – | NC1(c2ccc(-c3nc4c(cc3-c3ccccc3)N(C3CCCC3)C(=O)CO4)cc2)CCC1 [Example 58, 6-(4-(1-aminocyclobutyl)phenyl)-1-cyclopentyl-7-phenyl-1H-pyrido[2,3-b][1,4]oxazin-2(3H)-one]
1000 to 10000 nM | – | 1000 to 10000 nM | 1000 to 10000 nM | – | Cn1cc(N2C(=O)COc3nc(-c4ccc(C5(N)CCC5)cc4)c(-c4ccccc4)cc32)cn1 [Example 83, 6-(4-(1-aminocyclobutyl)phenyl)-1-(1-methyl-1H-pyrazol-4-yl)-7-phenyl-1H-pyrido[2,3-b][1,4]oxazin-2(3H)-one]
1000 to 10000 nM | – | 100 to 1000 nM | ≤ 100 nM | – | C[C@]1(O)C[C@@](N)(c2ccc(-c3nc4c(cc3-c3ccccc3)N(CC(F)(F)F)C(=O)CO4)cc2)C1 [Example 152, 6-(4-((1r,3r)-1-amino-3-hydroxy-3-methylcyclobutyl)phenyl)-7-phenyl-1-(2,2,2-trifluoroethyl)-1H-pyrido[2,3-b][1,4]oxazin-2(3H)-one]
1000 to 10000 nM | – | 100 to 1000 nM | ≤ 100 nM | – | C=CCN1C(=O)COc2nc(-c3ccc(C4(N)CCC4)cc3)c(-c3ccccc3)cc21 [Example 67, 1-allyl-6-(4-(1-aminocyclobutyl)phenyl)-7-phenyl-1H-pyrido[2,3-b][1,4]oxazin-2(3H)-one]
1000 to 10000 nM | – | 100 to 1000 nM | 1000 to 10000 nM | – | CN1C(=O)COc2nc(-c3ccc([C@]4(N)C[C@@H](O)C4)cc3)c(-c3ccccc3)cc21 [Example 97, 6-(4-((1s,3s)-1-amino-3-hydroxycyclobutyl)phenyl)-1-methyl-7-phenyl-1H-pyrido[2,3-b][1,4]oxazin-2(3H)-one]
1000 to 10000 nM | – | 100 to 1000 nM | 100 to 1000 nM | – | COCCN1C(=O)COc2nc(-c3ccc(C4(N)CCC4)cc3)c(-c3ccccc3)cc21 [Example 51, 6-(4-(1-aminocyclobutyl)phenyl)-1-(2-methoxyethyl)-7-phenyl-1H-pyrido[2,3-b][1,4]oxazin-2(3H)-one]
> 10000 nM | – | 1000 to 10000 nM | 1000 to 10000 nM | – | NC1(c2ccc(-c3nc4c(cc3-c3ccccc3)N(c3cccnc3)C(=O)CO4)cc2)CCC1 [Example 75, 6-(4-(1-aminocyclobutyl)phenyl)-7-phenyl-1-(pyridin-3-yl)-1H-pyrido[2,3-b][1,4]oxazin-2(3H)-one]
100 to 1000 nM | – | 100 to 1000 nM | ≤ 100 nM | – | NC1(c2ccc(-c3nc4c(cc3-c3ccccc3)N(CC(F)F)C(=O)CO4)cc2)CCC1 [Example 85, 6-(4-(1-aminocyclobutyl)phenyl)-1-(2,2-difluoroethyl)-7-phenyl-1H-pyrido[2,3-b][1,4]oxazin-2(3H)-one]
